Source: patent publication USRE50528E1, “Compounds and compositions for modulating EGFR mutant kinase activities” (Yuhan Corporation, priority 2014, dated 2025)

Legend:
EGFR mutant T790M = biological target: T1, EGFR mutant T790M (Homo sapiens, UniProt P00533, T790M); assay: Kinase inhibition assay, EGFR mutant T790M; details: biochemical potency;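 also: truncated human EGFR mutant enzyme preincubated two hours with compound, then ATP plus ULight-PolyGT peptide for one hour, Europium-labeled antibody LANCE detection, IC50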
T1 construct: truncated human JAK3, EGFR mutants such as del E746-A750; purchased Carna Biosciences

[1] = biological target: T2, EGFR mutant Del19 (E746-A750) (Homo sapiens, UniProt P00533, DEL746-750); assay: Kinase inhibition assay, EGFR del E746-A750; format: biochemical; details: read-out: EGFR mutants Del19 (E746-A750);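 also: truncated human EGFR mutant kinase, two-hour preincubation with compound, then one-hour reaction with ATP and ULight-PolyGT peptide, LANCE Europium-antibody phosphorylation readout, IC50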
T2 construct: truncated human JAK3, EGFR mutants such as del E746-A750; purchased Carna Biosciences
T2 sequence (P00533 with tags, fused parts or gaps DEL746-750 limits assumed): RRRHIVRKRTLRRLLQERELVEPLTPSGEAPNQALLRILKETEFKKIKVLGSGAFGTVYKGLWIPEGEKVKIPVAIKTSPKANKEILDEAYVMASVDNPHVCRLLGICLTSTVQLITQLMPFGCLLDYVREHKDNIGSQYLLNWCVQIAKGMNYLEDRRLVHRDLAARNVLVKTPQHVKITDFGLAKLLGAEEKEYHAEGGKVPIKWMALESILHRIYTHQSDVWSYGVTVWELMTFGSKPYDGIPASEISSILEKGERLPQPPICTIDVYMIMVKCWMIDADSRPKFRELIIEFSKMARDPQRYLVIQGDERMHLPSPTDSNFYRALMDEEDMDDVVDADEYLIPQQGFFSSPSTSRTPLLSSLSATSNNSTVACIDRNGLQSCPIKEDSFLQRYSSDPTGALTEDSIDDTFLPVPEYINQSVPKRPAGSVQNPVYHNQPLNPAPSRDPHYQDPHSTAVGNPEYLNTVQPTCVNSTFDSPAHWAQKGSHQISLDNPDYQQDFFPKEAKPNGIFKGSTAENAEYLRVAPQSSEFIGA

EGFR mutant L858R = biological target: T3, EGFR mutant L858R (Homo sapiens, UniProt P00533, L858R); assay: Kinase inhibition assay, EGFR L858R; format: biochemical; details: read-out: EGFR mutants L858R;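 also: truncated human EGFR L858R kinase with compound preincubation, ULight-PolyGT peptide phosphorylation read by Europium-antibody Lance detection, IC50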
T3 construct: truncated human JAK3, EGFR mutants such as del E746-A750; purchased Carna Biosciences
T3 sequence (P00533 669-1210 L858R limits assumed): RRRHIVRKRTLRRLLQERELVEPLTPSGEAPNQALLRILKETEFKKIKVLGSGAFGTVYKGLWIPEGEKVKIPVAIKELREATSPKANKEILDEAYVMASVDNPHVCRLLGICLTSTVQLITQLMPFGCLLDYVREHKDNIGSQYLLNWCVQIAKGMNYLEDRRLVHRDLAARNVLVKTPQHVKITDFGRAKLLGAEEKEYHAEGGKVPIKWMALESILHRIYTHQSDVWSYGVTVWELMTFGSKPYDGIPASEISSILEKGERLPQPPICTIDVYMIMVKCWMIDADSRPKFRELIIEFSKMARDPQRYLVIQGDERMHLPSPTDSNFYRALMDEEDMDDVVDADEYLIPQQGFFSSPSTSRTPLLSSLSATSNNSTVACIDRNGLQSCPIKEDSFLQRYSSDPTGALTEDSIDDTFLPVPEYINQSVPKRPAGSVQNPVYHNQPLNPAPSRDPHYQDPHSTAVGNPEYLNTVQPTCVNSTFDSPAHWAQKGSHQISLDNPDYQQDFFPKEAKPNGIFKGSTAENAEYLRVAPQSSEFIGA

EGFR mutant L858R/T790M = biological target: T4, EGFR mutant L858R/T790M (Homo sapiens, UniProt P00533, L858R/T790M); assay: Kinase inhibition assay, EGFR L858R/T790M; format: biochemical; details: read-out: EGFR mutants L858R/T790M;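 also: truncated human enzyme preincubated two hours with compound, then one hour with one millimolar ATP and ULight-PolyGT peptide, Europium-labeled antibody detection, IC50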
T4 construct: truncated human JAK3, EGFR mutants such as del E746-A750; purchased Carna Biosciences
T4 sequence (P00533 669-1210 T790M/L858R limits assumed): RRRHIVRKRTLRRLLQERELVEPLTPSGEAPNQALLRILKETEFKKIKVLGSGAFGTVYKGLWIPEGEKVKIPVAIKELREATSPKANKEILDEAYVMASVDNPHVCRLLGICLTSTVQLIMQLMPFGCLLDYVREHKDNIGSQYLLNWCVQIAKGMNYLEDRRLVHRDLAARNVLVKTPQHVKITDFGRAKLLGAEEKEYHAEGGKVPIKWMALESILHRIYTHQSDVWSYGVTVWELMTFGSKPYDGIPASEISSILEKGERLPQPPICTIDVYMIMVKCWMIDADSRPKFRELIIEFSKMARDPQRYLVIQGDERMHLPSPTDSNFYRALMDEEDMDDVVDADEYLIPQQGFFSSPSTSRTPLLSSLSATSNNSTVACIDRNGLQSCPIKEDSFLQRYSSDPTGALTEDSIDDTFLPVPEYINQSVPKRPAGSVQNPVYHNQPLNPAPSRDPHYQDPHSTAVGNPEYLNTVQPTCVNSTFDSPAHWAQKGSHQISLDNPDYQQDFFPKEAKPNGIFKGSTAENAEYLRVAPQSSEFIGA

EGFR mutant Del19/T790M = biological target: T5, EGFR mutant Del19/T790M (Homo sapiens, UniProt P00533, DEL746-750/T790M); assay: Kinase inhibition assay, EGFR del E746-A750/T790M; format: biochemical; details: read-out: EGFR mutants Del19/T790M
T5 construct: truncated human JAK3, EGFR mutants such as del E746-A750; purchased Carna Biosciences
T5 sequence (P00533 with tags, fused parts or gaps DEL746-750/T790M limits assumed): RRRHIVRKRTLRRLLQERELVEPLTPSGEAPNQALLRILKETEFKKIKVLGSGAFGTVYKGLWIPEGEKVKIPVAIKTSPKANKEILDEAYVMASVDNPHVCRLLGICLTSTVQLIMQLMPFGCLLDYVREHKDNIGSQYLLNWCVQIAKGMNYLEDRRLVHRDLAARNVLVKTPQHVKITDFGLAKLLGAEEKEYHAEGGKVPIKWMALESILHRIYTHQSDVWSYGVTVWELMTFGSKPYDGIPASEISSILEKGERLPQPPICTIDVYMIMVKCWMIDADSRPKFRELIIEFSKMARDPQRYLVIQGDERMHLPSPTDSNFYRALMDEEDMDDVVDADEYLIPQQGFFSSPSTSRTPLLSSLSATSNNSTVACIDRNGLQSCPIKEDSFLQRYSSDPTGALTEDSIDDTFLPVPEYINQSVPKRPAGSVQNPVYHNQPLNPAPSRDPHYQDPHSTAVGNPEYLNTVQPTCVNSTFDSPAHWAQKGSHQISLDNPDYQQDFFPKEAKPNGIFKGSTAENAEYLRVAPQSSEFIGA

JAK3 = biological target: T6, JAK3 (Homo sapiens, UniProt P52333); assay: Kinase inhibition assay, JAK3; details: biochemical potency;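 also: IC50 against purified truncated human JAK3 preincubated with compound, then reacted with ATP and ULight-Jak1 peptide, phosphorylation read by Europium-labeled antibody LANCE detection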
T6 construct: EGFR and JAK3 (JH1domain-catalytic) kinases, and mutant forms thereof; purchased Carna Biosciences
T6 sequence (P52333 822-1111 limits assumed): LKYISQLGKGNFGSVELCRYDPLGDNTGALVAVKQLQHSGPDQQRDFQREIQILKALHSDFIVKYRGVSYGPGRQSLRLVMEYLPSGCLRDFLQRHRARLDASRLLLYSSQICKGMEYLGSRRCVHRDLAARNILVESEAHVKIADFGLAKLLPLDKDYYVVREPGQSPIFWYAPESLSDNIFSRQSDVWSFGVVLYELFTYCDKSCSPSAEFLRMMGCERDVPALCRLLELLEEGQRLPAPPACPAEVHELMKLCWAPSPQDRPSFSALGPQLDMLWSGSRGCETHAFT

SYK = biological target: T7, SYK (Homo sapiens, UniProt P43405); assay: Kinase inhibition assay, SYK; format: biochemical; details: biochemical potency;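 also: purified full-length human SYK pre-incubated 30 min with compound, then ULight-TK peptide phosphorylation for 1 h, detected with Europium-labeled antibody in Lance buffer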
T7 construct: Purified human, full-length SYK, KDR; purchased Carna Biosciences

KDR = biological target: T8, KDR (Homo sapiens, UniProt P35968); assay: Kinase inhibition assay, KDR; format: biochemical; details: biochemical potency;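 also: purified full-length human KDR, 30 min preincubation with compound, then 1 h reaction with ATP and Ulight-Jak1 peptide substrate, phosphorylation read by Lance Europium antibody detection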
T8 construct: Purified human, full-length SYK, KDR; purchased Carna Biosciences
T8 sequence (P35968 20-1356): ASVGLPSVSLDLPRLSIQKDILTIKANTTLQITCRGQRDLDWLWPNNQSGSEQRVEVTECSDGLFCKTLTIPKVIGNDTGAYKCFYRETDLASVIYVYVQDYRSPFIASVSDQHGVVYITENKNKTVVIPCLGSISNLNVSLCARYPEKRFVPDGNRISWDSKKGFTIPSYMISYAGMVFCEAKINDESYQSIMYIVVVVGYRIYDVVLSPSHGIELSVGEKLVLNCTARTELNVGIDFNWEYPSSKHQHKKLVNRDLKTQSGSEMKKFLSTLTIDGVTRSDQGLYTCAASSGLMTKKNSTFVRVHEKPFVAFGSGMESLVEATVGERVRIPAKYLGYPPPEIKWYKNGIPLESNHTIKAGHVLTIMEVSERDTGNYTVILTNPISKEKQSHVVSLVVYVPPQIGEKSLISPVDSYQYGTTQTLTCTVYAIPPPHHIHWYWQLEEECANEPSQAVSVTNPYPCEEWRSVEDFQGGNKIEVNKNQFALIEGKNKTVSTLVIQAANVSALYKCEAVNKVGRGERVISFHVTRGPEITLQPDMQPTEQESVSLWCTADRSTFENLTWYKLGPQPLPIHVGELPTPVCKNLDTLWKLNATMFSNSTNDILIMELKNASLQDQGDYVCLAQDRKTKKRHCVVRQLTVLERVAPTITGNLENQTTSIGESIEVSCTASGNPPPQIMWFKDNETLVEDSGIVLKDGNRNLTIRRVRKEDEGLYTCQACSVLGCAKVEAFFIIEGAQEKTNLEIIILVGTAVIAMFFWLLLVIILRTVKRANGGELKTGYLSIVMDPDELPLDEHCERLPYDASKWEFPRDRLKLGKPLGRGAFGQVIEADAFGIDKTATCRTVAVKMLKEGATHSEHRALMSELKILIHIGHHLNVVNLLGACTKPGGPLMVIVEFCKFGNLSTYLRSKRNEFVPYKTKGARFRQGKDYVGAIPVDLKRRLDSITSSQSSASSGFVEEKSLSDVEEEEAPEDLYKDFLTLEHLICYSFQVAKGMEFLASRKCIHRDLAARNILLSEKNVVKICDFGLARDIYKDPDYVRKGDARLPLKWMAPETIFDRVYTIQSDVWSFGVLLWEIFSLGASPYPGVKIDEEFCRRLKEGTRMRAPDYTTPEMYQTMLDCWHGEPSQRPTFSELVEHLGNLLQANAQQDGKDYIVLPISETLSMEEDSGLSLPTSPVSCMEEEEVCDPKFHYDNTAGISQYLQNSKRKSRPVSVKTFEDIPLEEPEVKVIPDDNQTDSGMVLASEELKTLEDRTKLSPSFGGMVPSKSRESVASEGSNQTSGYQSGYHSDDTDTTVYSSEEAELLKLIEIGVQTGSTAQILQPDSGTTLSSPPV

H2073 (EGFR wildtype) = assay: Cell viability assay, H2073; format: cell-based; details: NCI-H2073; cellular potency; 72-hour incubation; ATPLite;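 also: NSCLC cell line whose survival relies on wildtype EGFR, treated with serially diluted compound, cytotoxic effect judged from remaining cell viability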
[2] = test system: PC9 (EGFR del E746-A750 mutant); assay: Cell viability assay, PC9; format: cell-based; details: for Selectivity over wildtype, Wildtype vs mutant H2073/PC9 (fold): cellular potency ratio; for IC50: cellular potency, 72-hour incubation, ATPLite, read-out: EGFR Mutants PC9;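 as to all read-outs here: NSCLC PC9 cells, whose viability relies on EGFR del E746-A750, exposed to serially diluted compound for 72 h at 37 °C, ATPLite read-out, IC50, H2073 as EGFR wildtype line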
[3] = test system: H1975 (EGFR L858R/T790M mutant); assay: Cell viability assay, H1975; format: cell-based; details: for IC50: Homo sapiens, NCI-H1975, cellular potency, 72-hour incubation, ATPLite, read-out: EGFR Mutants H1975; for Selectivity over wildtype, Wildtype vs mutant H2073/H1975 (fold): cellular potency ratio;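 as to all read-outs here: NSCLC cells whose survival relies on EGFR L858R/T790M, exposed 72 h to serially diluted compound, ATP-based viability readout, with the H2073 line (wildtype EGFR dependent) as wildtype comparator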
p-EGFR wildtype = biological target: T9, p-EGFR wildtype (Homo sapiens, UniProt P00533); assay: Western analysis, H1299 p-EGFR wildtype; format: cell-based; details: molecular potency; 4 hours; 3 nM EGF ligand
T9 construct: endogenous in cells; host or cells: H1299

p-EGFR del E746-A750 = biological target: T10, p-EGFR del E746-A750 (Homo sapiens, UniProt P00533, DEL746-750); assay: Western analysis, PC9 p-EGFR del E746-A750; format: cell-based; details: for Selectivity over wildtype: p-wildtype over p-EGFR del19: H1299 vs PC9; for IC50: molecular potency, 4 hours, read-out: PC9 p-EGFR del 19 (E746-A750)
T10 construct: phosphorylation of mutant EGFR in NSCLC lines PC9; endogenous in cells; host or cells: PC9

p-EGFR L858R/T790M = biological target: T11, p-EGFR L858R/T790M (Homo sapiens, UniProt P00533, L858R/T790M); assay: Western analysis, H1975 p-EGFR L858R/T790M; format: cell-based; details: for Selectivity over wildtype: p-wildtype over p-EGFR L858R, T790M: H1299 vs H1975; for IC50: molecular potency, 4 hours
T11 construct: phosphorylation of mutant EGFR in NSCLC lines H1975; endogenous in cells; host or cells: H1975
T11 sequence (P00533 25-1210 T790M/L858R): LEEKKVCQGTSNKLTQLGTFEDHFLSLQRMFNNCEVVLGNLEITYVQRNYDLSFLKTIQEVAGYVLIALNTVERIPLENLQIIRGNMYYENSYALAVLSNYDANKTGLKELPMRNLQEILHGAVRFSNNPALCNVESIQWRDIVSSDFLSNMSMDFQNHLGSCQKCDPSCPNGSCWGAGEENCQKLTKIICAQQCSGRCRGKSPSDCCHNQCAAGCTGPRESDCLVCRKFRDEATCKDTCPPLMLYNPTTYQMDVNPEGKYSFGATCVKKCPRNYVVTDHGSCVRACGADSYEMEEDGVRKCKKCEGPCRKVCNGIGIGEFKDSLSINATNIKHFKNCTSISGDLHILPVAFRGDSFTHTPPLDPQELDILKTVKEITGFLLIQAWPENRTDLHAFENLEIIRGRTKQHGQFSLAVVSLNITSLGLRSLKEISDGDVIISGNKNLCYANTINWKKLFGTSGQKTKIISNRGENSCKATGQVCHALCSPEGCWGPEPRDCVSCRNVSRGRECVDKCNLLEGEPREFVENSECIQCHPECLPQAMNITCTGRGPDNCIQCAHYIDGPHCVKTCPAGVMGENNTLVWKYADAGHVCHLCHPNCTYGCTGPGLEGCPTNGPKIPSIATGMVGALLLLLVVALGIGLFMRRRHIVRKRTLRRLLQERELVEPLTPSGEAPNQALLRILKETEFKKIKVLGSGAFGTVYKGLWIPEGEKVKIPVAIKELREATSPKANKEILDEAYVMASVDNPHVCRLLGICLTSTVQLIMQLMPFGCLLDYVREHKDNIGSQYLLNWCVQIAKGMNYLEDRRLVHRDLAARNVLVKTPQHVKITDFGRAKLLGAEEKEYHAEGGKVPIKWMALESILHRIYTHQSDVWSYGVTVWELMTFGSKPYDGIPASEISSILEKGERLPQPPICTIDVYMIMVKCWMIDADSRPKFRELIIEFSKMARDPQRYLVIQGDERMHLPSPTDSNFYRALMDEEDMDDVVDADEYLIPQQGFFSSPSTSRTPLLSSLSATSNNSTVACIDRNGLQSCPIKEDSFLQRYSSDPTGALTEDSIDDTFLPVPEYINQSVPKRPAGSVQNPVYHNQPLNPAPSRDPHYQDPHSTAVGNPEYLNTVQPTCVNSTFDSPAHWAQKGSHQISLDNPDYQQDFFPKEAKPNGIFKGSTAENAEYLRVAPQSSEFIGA

Row | SMILES | IC50 (EGFR mutant T790M) [µM] | IC50 [1] [µM] | IC50 (EGFR mutant L858R) [µM] | IC50 (EGFR mutant L858R/T790M) [µM] | IC50 (EGFR mutant Del19/T790M) [µM] | IC50 (JAK3) [µM] | IC50 (SYK) [µM] | IC50 (KDR) [µM] | IC50 (H2073 (EGFR wildtype)) [µM] | Selectivity over wildtype, Wildtype vs mutant H2073/PC9 (fold) [2] [fold] | IC50 [2] [µM] | IC50 [3] [µM] | Selectivity over wildtype, Wildtype vs mutant H2073/H1975 (fold) [3] | IC50 (p-EGFR wildtype) [µM] | Selectivity over wildtype: p-wildtype over p-EGFR del19 (p-EGFR del E746-A750) | IC50 (p-EGFR del E746-A750) [µM] | Selectivity over wildtype: p-wildtype over p-EGFR L858R, T790M (p-EGFR L858R/T790M) | IC50 (p-EGFR L858R/T790M) [µM]
1 | C=CC(=O)Nc1cc(Nc2nccc(-n3cc(CN(C)C)c(C)n3)n2)c(OC)cc1N1CCOCC1 [Compound 46, N-(5-(4-(4-((dimethylamino)methyl)-3-methyl-1H-pyrazol-1-yl)pyrimidin-2-ylamino)-4-methoxy-2-morpholinophenyl)acrylamide] | < 0.02 | < 0.02 | < 0.02 | < 0.02 | < 0.02 | < 0.02 | 0.201 to 1 | > 1 | > 1 | >200 | < 0.02 | 0.02 to 0.2 | 101-200 fold | 0.02 to 0.2 | 20-100 fold | < 0.02 | 20-100 fold | < 0.02
2 | C=CC(=O)Nc1cc(Nc2nccc(-n3cc(CN4CCC4)c(C)n3)n2)c(OC)cc1N1CCOCC1 [Compound 14, N-(5-(4-(4-(azetidin-1-ylmethyl)-3-methyl-1H-pyrazol-1-yl)pyrimidin-2-ylamino)-4-methoxy-2-morpholinophenyl)acrylamide] | < 0.02 | < 0.02 | < 0.02 | < 0.02 | < 0.02 | < 0.02 | 0.201 to 1 | > 1 | > 1 | >200 | < 0.02 | 0.02 to 0.2 | 20-100 fold | > 1 | >200 fold | < 0.02 | 20-100 fold | < 0.02
3 | C=CC(=O)Nc1cc(Nc2ncc(C)c(-n3cc(CN(C)C)c(C4CC4)n3)n2)c(OC)cc1N1CCOCC1 [Compound 122, N-(5-(4-(3-cyclopropyl-4-((dimethylamino)methyl)-1H-pyrazol-1-yl)-5-methylpyrimidin-2-ylamino)-4-methoxy-2-morpholinophenyl)acrylamide] | < 0.02 | < 0.02 | < 0.02 | < 0.02 | < 0.02 | < 0.02 | 0.02 to 0.2 | > 1 | > 1 | >200 | < 0.02 | < 0.02 | >200 fold | 0.201 to 1 | 20-100 fold | < 0.02 | 20-100 fold | < 0.02
4 | C=CC(=O)Nc1cc(Nc2nccc(-n3cc(CN(C)C)c(C4CC4)n3)n2)c(OC)cc1N1CCOCC1 [Compound 74, N-(5-(4-(3-cyclopropyl-4-((dimethylamino)methyl)-1H-pyrazol-1-yl)pyrimidin-2-ylamino)-4-methoxy-2-morpholinophenyl)acrylamide] | < 0.02 | < 0.02 | < 0.02 | < 0.02 | < 0.02 | < 0.02 | 0.02 to 0.2 | > 1 | > 1 | >200 | < 0.02 | < 0.02 | >200 fold | 0.201 to 1 | 101-200 fold | < 0.02 | 20-100 fold | < 0.02
